Data as given in ChEMBL document CHEMBL1781956, “Design, synthesis and insulin-sensitizing activity of indomethacin and diclofenac derivatives” (Bioorg Med Chem Lett, 2009).
Activity calls are given as the source filed them. The calls are words filed in the database; no cut-off is given here.

Columns and labels:
Assay type in all cases: functional
3T3-L1 [1] = assay: Insulin sensitizing activity in mouse 3T3L1 cells assessed as triglyceride accumulation by insulin-regulated cell differentiation assay
[2] = target: T1, Peroxisome proliferator-activated receptor gamma (Homo sapiens, UniProt P37231); assay: Agonist activity at human PPARgamma in human U2OS cells by cell based transactivation assay
T1 sequence (P37231 whole entry): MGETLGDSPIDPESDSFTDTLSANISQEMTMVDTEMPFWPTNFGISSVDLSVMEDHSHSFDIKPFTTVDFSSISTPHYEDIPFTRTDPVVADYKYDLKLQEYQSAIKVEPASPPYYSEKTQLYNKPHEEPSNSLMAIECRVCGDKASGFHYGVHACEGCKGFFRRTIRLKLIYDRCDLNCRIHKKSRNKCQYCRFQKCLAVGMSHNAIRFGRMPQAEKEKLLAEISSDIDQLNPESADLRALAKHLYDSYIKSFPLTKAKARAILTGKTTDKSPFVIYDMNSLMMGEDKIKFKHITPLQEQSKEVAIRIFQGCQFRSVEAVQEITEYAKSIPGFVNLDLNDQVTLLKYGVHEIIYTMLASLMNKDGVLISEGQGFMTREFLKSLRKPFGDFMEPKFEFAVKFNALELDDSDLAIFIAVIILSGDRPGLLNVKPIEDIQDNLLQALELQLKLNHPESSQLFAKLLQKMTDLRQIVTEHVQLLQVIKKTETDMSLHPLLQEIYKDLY

3T3-L1 [3] = assay: Insulin sensitizing activity in mouse 3T3L1 cells assessed as triglyceride accumulation at 1 uM by insulin-regulated cell differentiation assay relative to rosiglitazone
[4] = target: T2, Peroxisome proliferator-activated receptor gamma (Homo sapiens) (UniProt P37231); assay: Agonist activity at human PPARgamma in human U2OS cells by cell based transactivation assay relative to rosiglitazone
T2 sequence (whole entry): T1 sequence (P37231 whole entry)

Row | Compound | EC30 (3T3-L1 [1]) | EC50 [2] | Activity (3T3-L1 [3]) | Emax [4] | EC50 ([2]; u2os)
1 | COC(=O)Cc1c(C)n(C(=O)c2ccc(Cl)cc2)c2ccc(OCCc3nc(-c4ccccc4)oc3C)cc12 | 2.75 ×10⁻⁷ M | 620 nM | 80% | 74% | –
2 | CCc1ccc(CCOc2ccc3c(c2)c(CC(=O)OC)c(C)n3C(=O)c2ccc(Cl)cc2)nc1 | 1.7 ×10⁻⁶ M | – | 50% | – | –
3 | COC(=O)Cc1c(C)n(C(=O)c2ccc(Cl)cc2)c2ccc(OCCN3COc4ccccc4C3=O)cc12 | – | – | 47% | – | –
4 | COC(=O)Cc1c(C)n(C(=O)c2ccc(Cl)cc2)c2ccc(OCCN3CCOCC3)cc12 | – | – | 42% | – | –
5 | Cc1c(CC(=O)O)c2cc(OCCN3CCOCC3)ccc2n1C(=O)c1ccc(Cl)cc1 | – | – | 36% | – | –
6 | COC(=O)Cc1c(C)n(C(=O)c2ccc(Cl)cc2)c2ccc(OCCc3nc(-c4ccc(-c5ccccc5)cc4)oc3C)cc12 | 1.23 ×10⁻⁸ M | 20 nM | 138% | 141% | –
7 | CCc1ccc(CCOc2ccc3c(c2)c(CC(=O)O)c(C)n3C(=O)c2ccc(Cl)cc2)nc1 | 5.89 ×10⁻⁶ M | – | 42% | – | –
8 | O=C(O)Cc1ccc(OCc2ccccc2)cc1Nc1c(Cl)cccc1Cl | 2.51 ×10⁻⁷ M | – | 98% | 35% | –
9 | CN(CCOc1ccc(CC2SC(=O)NC2=O)cc1)c1ccccn1 (centres undefined) [ROSIGLITAZONE] | 1.05 ×10⁻⁷ M | – | 100% | – | –
10 | Cc1oc(-c2ccccc2)nc1CCOc1ccc2c(c1)c(CC(=O)O)c(C)n2C(=O)c1ccc(Cl)cc1 | 6.17 ×10⁻⁶ M | – | 36% | 79% | –
11 | COC(=O)Cc1c(C)n(C(=O)c2ccc(Cl)cc2)c2ccc(OCCc3nc(-c4cccc(OC)c4)oc3C)cc12 | 3.16 ×10⁻⁷ M | – | 85% | – | –
12 | Cc1c(CC(=O)O)c2cc(OCc3ccccc3)ccc2n1C(=O)c1ccc(Cl)cc1 | 9.51 ×10⁻⁹ M | – | 126% | inactive | Not Active
13 | COC(=O)Cc1c(C)n(C(=O)c2ccc(Cl)cc2)c2ccc(OCCN3CCCCC3)cc12 | – | – | 33% | – | –
14 | CC(C)=CCC/C(C)=C/CC/C(C)=C/CCCOc1ccc2c(c1)c(CC(=O)O)c(C)n2C(=O)c1ccc(Cl)cc1 | 6.92 ×10⁻⁷ M | – | 74% | – | –
15 | COC(=O)Cc1c(C)n(C(=O)c2ccc(Cl)cc2)c2ccc(OCc3ccccc3)cc12 | 6.56 ×10⁻⁹ M | – | 134% | inactive | Not Active
16 | Cc1oc(-c2ccc(Cl)cc2)nc1CCOc1ccc2c(c1)c(CC(=O)O)c(C)n2C(=O)c1ccc(Cl)cc1 | – | – | 38% | – | –
17 | Cc1c(CC(=O)O)c2cc(OCCN3CCCCC3)ccc2n1C(=O)c1ccc(Cl)cc1 | – | – | 30% | – | –
18 | Cc1c(CC(=O)O)c2cc(OCCN3COc4ccccc4C3=O)ccc2n1C(=O)c1ccc(Cl)cc1 | – | – | 41% | – | –
19 | Cc1oc(-c2ccc(-c3ccccc3)cc2)nc1CCOc1ccc2c(c1)c(CC(=O)O)c(C)n2C(=O)c1ccc(Cl)cc1 | 3.31 ×10⁻⁸ M | 40 nM | 129% | 134% | –
20 | COc1cccc(-c2nc(CCOc3ccc4c(c3)c(CC(=O)O)c(C)n4C(=O)c3ccc(Cl)cc3)c(C)o2)c1 | 3.75 ×10⁻⁷ M | – | 76% | – | –
21 | COC(=O)Cc1c(C)n(C(=O)c2ccc(Cl)cc2)c2ccc(OCCC/C=C(\C)CC/C=C(\C)CCC=C(C)C)cc12 | 2.88 ×10⁻⁷ M | – | 81% | – | –
22 | COC(=O)Cc1c(C)n(C(=O)c2ccc(Cl)cc2)c2ccc(OCCc3nc(-c4ccc(Cl)cc4)oc3C)cc12 | 2 ×10⁻⁶ M | – | 57% | – | –
